Assay results as given in patent US20100204203A1, “Chemical Compounds 637: Pyridopyrimidinediones as PDE4 Inhibitors” (priority 2007, published 2010).

What follows are compounds tested against recombinant Human Phosphodiesterase B2 (PDE4B2) (Homo sapiens, UniProt Q07343) (assay: Human Phosphodiesterase B2 Radiometric Assay (yttrium silicate SPA beads, [3H]cyclic AMP)). Conditions: recombinant human PDE4B2, radiometric SPA assay, 8 nM [3H]cyclic AMP; read-out: PDE4B2 pIC50 (converted).
Format: biochemical
Method in brief: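 Compounds were preincubated 30 min at 30 °C with 0.1 mg/mL PDE4B2 in 50 mM HEPES pH 7.5, 8.3 mM MgCl2, 1.7 mM EGTA, 0.01% Brij 35. Then 8 nM [3H]cAMP was added for 20 min, stopped with yttrium silicate SPA beads plus 18 mM ZnSO4 capturing product 5′AMP; pIC50 by curve fitting.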

recombinant Human Phosphodiesterase B2 (PDE4B2), sequence (Q07343 1-564 isoform Q07343-2): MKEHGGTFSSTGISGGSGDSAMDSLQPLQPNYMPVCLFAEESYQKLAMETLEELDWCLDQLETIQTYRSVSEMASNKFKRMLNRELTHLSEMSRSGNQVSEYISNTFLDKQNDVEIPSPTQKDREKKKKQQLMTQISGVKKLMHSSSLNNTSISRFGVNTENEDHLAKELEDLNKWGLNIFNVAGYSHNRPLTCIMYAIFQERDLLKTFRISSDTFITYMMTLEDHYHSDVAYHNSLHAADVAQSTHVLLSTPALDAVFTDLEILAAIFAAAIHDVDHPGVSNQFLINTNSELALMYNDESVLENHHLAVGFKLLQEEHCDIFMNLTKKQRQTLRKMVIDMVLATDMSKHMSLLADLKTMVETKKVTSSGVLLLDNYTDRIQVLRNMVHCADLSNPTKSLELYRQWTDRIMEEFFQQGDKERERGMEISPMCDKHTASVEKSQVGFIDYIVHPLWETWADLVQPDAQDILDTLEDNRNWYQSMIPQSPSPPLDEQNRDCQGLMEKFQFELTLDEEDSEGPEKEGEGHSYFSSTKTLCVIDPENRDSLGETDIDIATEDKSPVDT

IC50	Compound
0.0158 nM	O=c1c2cc(F)cnc2n(-c2cccc(-c3ccc(O)cc3CN3CCSCC3)c2)c(=O)n1[C@H]1CC[C@@H](NCc2cn3cc(F)ccc3n2)CC1 [Example 253, 6-Fluoro-3-(cis-4-{[(6-fluoroimidazo[1,2-c]pyridin-2-yl)methyl]amino}cyclohexyl)-1-[4′-hydroxy-2′-(thiomorpholin-4-ylmethyl)biphenyl-3-yl]pyrido[2,3-d]pyrimidine-2,4(1H,3H)-dione]
0.0158 nM	Cc1cccc(C(=O)N[C@H]2CC[C@@H](n3c(=O)c4cc(F)cnc4n(-c4cccc(-c5ccc(CN6CCN(C7CCCC7)CC6)cc5)c4)c3=O)CC2)n1 [Example 294, N-{cis-4-[1-{4′-[(4-cyclopentylpiperazin-1-yl)methyl]biphenyl-3-yl}-6-fluoro-2,4-dioxo-1,4-dihydropyrido[2,3-d]pyrimidin-3(2H)-yl]cyclohexyl}-6-methylpyridine-2-carboxamide]
10 nM	O=C(N[C@H]1CC[C@@H](n2c(=O)c3cc(F)cnc3n(-c3ccc4c(cnn4Cc4ccccc4)c3)c2=O)CC1)c1cn2cc(F)ccc2n1 [Example 39, N-{cis-4-[1-(1-benzyl-1H-indazol-5-yl)-6-fluoro-2,4-dioxo-1,4-dihydropyrido[2,3-d]pyrimidin-3 (2H)-yl]cyclohexyl}-6-fluoroimidazo[1,2-a]pyridine-2-carboxamide]
0.0158 nM	O=C(N[C@H]1CC[C@@H](n2c(=O)c3cc(F)cnc3n(-c3cccc(-c4ccc(OCCO)cc4)c3)c2=O)CC1)c1cn2cc(F)ccc2n1 [Example 58, 6-fluoro-N-{cis-4-[6-fluoro-1-[4′-(2-hydroxyethoxy)biphenyl-3-yl]-2,4-dioxo-1,4-dihydropyrido[2,3-d]pyrimidin-3(2H)-yl]cyclohexyl}imidazo[1,2-a]pyridine-2-carboxamide]
0.0126 nM	O=C(N[C@H]1CC[C@@H](n2c(=O)c3cc(F)cnc3n(-c3cccc(-c4ccc(CCCNCCCO)cc4)c3)c2=O)CC1)c1cn2cc(F)ccc2n1 [Example 96, 6-fluoro-N-{cis-4-[6-fluoro-1-(4′-{3-[(3-hydroxypropyl)amino]propyl}biphenyl-3-yl)-2,4-dioxo-1,4-dihydropyrido[2,3-d]pyrimidin-3(2H)-yl]cyclohexyl}imidazo[1,2-a]pyridine-2-carboxamide]
39.8 nM	NCCNC(=O)c1cccc(-n2c(=O)n([C@H]3CC[C@@H](NC(=O)c4cn5ccccc5n4)CC3)c(=O)c3cc(F)cnc32)c1 [Example 5, N-{cis-4-[1-(3-{[(2-aminoethyl)amino]carbonyl}phenyl)-6-fluoro-2,4-dioxo-1,4-dihydropyrido[2,3-d]pyrimidin-3(2H)-yl]cyclohexyl}imidazo[1,2-a]pyridine-2-carboxamide]
0.158 nM	CN1CCCC1c1ccc2nc(C(=O)N[C@H]3CC[C@@H](n4c(=O)c5cc(F)cnc5n(-c5cccc(-c6ccccc6)c5)c4=O)CC3)cn2c1 (stereo partly drawn) [Example 2, N-[cis-4-(1-biphenyl-3-yl-6-fluoro-2,4-dioxo-1,4-dihydropyrido[2,3-d]pyrimidin-3(2H)-yl)cyclohexyl]-6-(1-methylpyrrolidin-2-yl)imidazo[1,2-a]pyridine-2-carboxamide]
6.31 nM	CN(C)CCOc1cc(F)ccc1-c1cccc(-n2c(=O)n([C@H]3CC[C@@H](N(CCN(C)C)C(=O)c4cn5cc(F)ccc5n4)CC3)c(=O)c3cc(F)cnc32)c1 [Example 83, N-{cis-4-[1-{2′-[2-(dimethylamino)ethoxy]-4′-fluorobiphenyl-3-yl}-6-fluoro-2,4-dioxo-1,4-dihydropyrido[2,3-d]pyrimidin-3(2H)-yl]cyclohexyl}-N-[2-(dimethylamino)ethyl]-6-fluoroimidazo[1,2-a]pyridine-2-carboxamide]
0.00316 nM	O=C(N[C@H]1CC[C@@H](n2c(=O)c3cc(F)cnc3n(-c3cccc(-c4ccccc4CN4CCOCC4)c3)c2=O)CC1)c1cn2cc(F)ccc2n1 [Example 19, 6-fluoro-N-{cis-4-[6-fluoro-1-[2′-(morpholin-4-ylmethyl)biphenyl-3-yl]-2,4-dioxo-1,4-dihydropyrido[2,3-d]pyrimidin-3(2H)-yl]cyclohexyl}imidazo[1,2-a]pyridine-2-carboxamide.]
0.00631 nM	O=C(N[C@H]1CC[C@@H](n2c(=O)c3cc(F)cnc3n(-c3cccc(-c4ccc(OCCCN5CCOCC5)cc4)c3)c2=O)CC1)c1cn2cc(F)ccc2n1 [Example 81, 6-fluoro-N-{cis-4-[6-fluoro-1-[4′-(3-morpholin-4-ylpropoxy)biphenyl-3-yl]-2,4-dioxo-1,4-dihydropyrido[2,3-d]pyrimidin-3(2H)-yl]cyclohexyl}imidazo[1,2-a]pyridine-2-carboxamide]
0.0251 nM	O=C(N[C@H]1CC[C@@H](n2c(=O)c3cc(F)cnc3n(-c3cccc(-c4ccc(CN5CC[C@@H](O)C5)cc4)c3)c2=O)CC1)c1cn2cc(F)ccc2n1 [Example 56, 6-fluoro-N-{cis-4-[6-fluoro-1-(4′-{[(3R)-3-hydroxypyrrolidin-1-yl]methyl}biphenyl-3-yl)-2,4-dioxo-1,4-dihydropyrido[2,3-d]pyrimidin-3(2H)-yl]cyclohexyl}imidazo[1,2-a]pyridine-2-carboxamide]
0.501 nM	C[C@@H](CO)N(C)Cc1cc(O)ccc1-c1cccc(-n2c(=O)n([C@H]3CC[C@@H](NCc4cn5cc(F)ccc5n4)CC3)c(=O)c3cc(F)cnc32)c1 [Example 324, 6-fluoro-3-(cis-4-{[(6-fluoroimidazo[1,2-a]pyridin-2-yl)methyl]amino}cyclohexyl)-1-(4′-hydroxy-2′-{[[(1S)-2-hydroxy-1-methylethyl](methyl)amino]methyl}biphenyl-3-yl)pyrido[2,3-d]pyrimidine-2,4(1H,3H)-dione]

More lines, now with the values behind:

Compound	IC50
Cc1cc(C(=O)N[C@H]2CC[C@@H](n3c(=O)c4cc(F)cnc4n(-c4cccc(-c5ccc(O)cc5CN(C)C)c4)c3=O)CC2)nn1C [Example 348, N-{cis-4-[1-{2′-[(dimethylamino)methyl]-4′-hydroxybiphenyl-3-yl}-6-fluoro-2,4-dioxo-1,4-dihydropyrido[2,3-d]pyrimidin-3(2H)-yl]cyclohexyl}-1,5-dimethyl-1H-pyrazole-3-carboxamide]	0.0251 nM
O=C(CN1CCCCC1)N[C@H]1CC[C@@H](n2c(=O)c3cc(F)cnc3n(-c3cccc(-c4ccc(O)cc4CN4CCOCC4)c3)c2=O)CC1 [Example 333, N-{cis-4-[6-fluoro-1-[4′-hydroxy-2′-(morpholin-4-ylmethyl)biphenyl-3-yl]-2,4-dioxo-1,4-dihydropyrido[2,3-d]pyrimidin-3(2H)-yl]cyclohexyl}-2-piperidin-1-ylacetamide]	2 nM
CN1CCN(CC(=O)N[C@H]2CC[C@@H](n3c(=O)c4cc(F)cnc4n(-c4cccc(-c5ccc(CN6CCCN(C)CC6)cc5)c4)c3=O)CC2)CC1 [Example 291, N-{cis-4-[6-fluoro-1-{4′-[(4-methyl-1,4-diazepan-1-yl)methyl]biphenyl-3-yl}-2,4-dioxo-1,4-dihydropyrido[2,3-d]pyrimidin-3(2H)-yl]cyclohexyl}-2-(4-methylpiperazin-1-yl)acetamide]	0.2 nM
O=C(N[C@H]1CC[C@@H](n2c(=O)c3cc(F)cnc3n(-c3cccc(-c4ccc(CN5CCCNCC5)cc4)c3)c2=O)CC1)c1cc(=O)c2ccccc2[nH]1 [Example 355, N-{cis-4-[1-[4′-(1,4-diazepan-1-ylmethyl)biphenyl-3-yl]-6-fluoro-2,4-dioxo-1,4-dihydropyrido[2,3-d]pyrimidin-3(2H)-yl]cyclohexyl}-4-oxo-1,4-dihydroquinoline-2-carboxamide]	0.0501 nM
CN(Cc1cn2cc(F)ccc2n1)[C@H]1CC[C@@H](n2c(=O)c3cc(F)cnc3n(-c3cccc(-c4ccc(O)cc4CN4CCOCC4)c3)c2=O)CC1 [Example 286, 6-fluoro-3-{cis-4-[[(6-fluoroimidazo[1,2-a]pyridin-2-yl)methyl](methyl)amino]cyclohexyl}-1-[4′-hydroxy-2′-(morpholin-4-ylmethyl)biphenyl-3-yl]pyrido[2,3-d]pyrimidine-2,4(1H,3H)-dione]	2 nM
CC(C)N1CCN(Cc2ccc(-c3cccc(-n4c(=O)n([C@H]5CC[C@@H](NC(=O)C6CCCC6)CC5)c(=O)c5cc(F)cnc54)c3)cc2)CC1 [Example 236, N-{cis-4-[6-fluoro-1-{4′-[(4-isopropylpiperazin-1-yl)methyl]biphenyl-3-yl}-2,4-dioxo-1,4-di-hydropyrido[2,3-d]pyrimidin-3(2H)-yl]cyclohexyl}cyclo-pentanecarboxamide]	0.126 nM
CC(C)N1CCN(Cc2ccc(-c3cccc(-n4c(=O)n([C@H]5CC[C@@H](NC(=O)c6nccn6C)CC5)c(=O)c5cc(F)cnc54)c3)cc2)CC1 [Example 239, N-{cis-4-[6-fluoro-1-{4′-[(4-isopropylpiperazin-1-yl)methyl]biphenyl-3-yl}-2,4-dioxo-1,4-di-hydropyrido[2,3-d]pyrimidin-3(2H)-yl]cyclohexyl}-1-methyl-1H-imidazole-2-carboxamide]	0.316 nM
O=C(N[C@H]1CC[C@@H](n2c(=O)c3cc(F)cnc3n(-c3cccc(-c4ccc(CN5CCCOCC5)cc4)c3)c2=O)CC1)c1cn2c(n1)CCCC2 [Example 224, N-{cis-4-[6-fluoro-1-[4′-(1,4-oxazepan-4-ylmethyl)biphenyl-3-yl]-2,4-dioxo-1,4-dihydropyrido[2,3-d]pyrimidin-3(2H)-yl]cyclohexyl}-5,6,7,8-tetrahydroimidazo[1,2-a]pyridine-2-carboxamide]	0.01 nM
O=C(N[C@H]1CC[C@@H](n2c(=O)c3cc(F)cnc3n(-c3cccc(-c4ccccc4CN4CCOCC4)c3)c2=O)CC1)C1(O)CC1 [Example 48, N-{cis-4-[6-fluoro-1-[2′-(morpholin-4-ylmethyl)biphenyl-3-yl]-2,4-dioxo-1,4-dihydropyrido[2,3-d]pyrimidin-3(2H)-yl]cyclohexyl}-1-hydroxycyclopropanecarboxamide]	0.398 nM
